According to ChEMBL document CHEMBL5036302, “Amphiol, an Antifungal Fungal Pigment from Pseudogymnoascus sp. PF1464” (2021):
Converted amounts (≈) assume the structure as drawn.

Legend:
Assay type in all cases: functional
[1] = tested on: Schizosaccharomyces pombe; test: Antifungal activity against Schizosaccharomyces pombe assessed as inhibition of fungal growth by CLSI protocol based microbroth dilution method
Candida albicans = test: Antifungal activity against Candida albicans assessed as inhibition of fungal growth by CLSI protocol based microbroth dilution method
Aspergillus fumigatus = test: Antifungal activity against Aspergillus fumigatus assessed as inhibition of fungal growth by CLSI protocol based microbroth dilution method
Staphylococcus aureus = test: Antibacterial activity against Staphylococcus aureus assessed as inhibition of bacterial growth by CLSI protocol based microbroth dilution method
Escherichia coli = test: Antibacterial activity against Escherichia coli assessed as inhibition of bacterial growth by CLSI protocol based microbroth dilution method

An MIC [1] of 0.8 µg/mL (≈ 1.25 µM), an MIC (Candida albicans) of 8 µg/mL (≈ 12.5 µM) and an MIC (Aspergillus fumigatus) of 16 µg/mL (≈ 25 µM) were found for `CC(/C=C/C=C/C=C/C=C/C=C/C=C/c1cc(O)c([C@@H]2O[C@H](CO)[C@@H](O)[C@H](O)[C@H]2O)c(=O)o1)=C\[C@H](C)C(=O)[C@@H](C)C[C@@H](C)[C@H](C)O` in this work. For the same compound, the MIC (Staphylococcus aureus) was over 64 µg/mL and the MIC (Escherichia coli) was over 64 µg/mL.
An MIC [1] of 0.13 µg/mL (≈ 0.141 µM) was found for `C[C@@H]1[C@H](O)[C@@H](C)/C=C/C=C/C=C/C=C/C=C/C=C/C=C/[C@H](O[C@@H]2O[C@H](C)[C@@H](O)[C@H](N)[C@@H]2O)C[C@@H]2O[C@](O)(C[C@@H](O)C[C@@H](O)[C@H](O)CC[C@@H](O)C[C@@H](O)CC(=O)O[C@H]1C)C[C@H](O)[C@H]2C(=O)O` [AMPHOTERICIN B] in this work.
